Literature values as cited in patent US8603452B1, “Method of preventing biofouling using an anti-fouling bio-hydrogel composition” (University of South Florida, priority 2007, dated 2013).
Where two headings read alike, the source gives them in different places.

Experiments:
[1] = test system: biofouling; conditions: hydrogel coatings containing BAC, marine environment

benzalkonium chloride [BAC]
diffusion coefficient (loss of BAC from hydrogel film, period from 12 to 50 hours, 13° C., freshwater): 7.3×10^−8 cm^2 s^−1 | diffusion coefficient (rate of loss of the residual BAC from hydrogel film, 15° C.): 5.7×10^−10 cm^2 s^−1 | prevention of the development of biofouling (duration) [1]: up to 12 weeks
